Results published in ChEMBL document CHEMBL1144890, “3D QSAR analyses-guided rational design of novel ligands for the (alpha4)2(beta2)3 nicotinic acetylcholine receptor” (J Med Chem, 2003).

target: Neuronal acetylcholine receptor; alpha4/beta2 (Rattus norvegicus, UniProt P09483+P12390); assay: In vitro binding affinity towards (alpha-4)2(beta-2)3 neuronal nicotinic acetylcholine receptor in P2 membrane fractions of rat forebrain; format: cell membranes
Sequence (P09483 whole entry): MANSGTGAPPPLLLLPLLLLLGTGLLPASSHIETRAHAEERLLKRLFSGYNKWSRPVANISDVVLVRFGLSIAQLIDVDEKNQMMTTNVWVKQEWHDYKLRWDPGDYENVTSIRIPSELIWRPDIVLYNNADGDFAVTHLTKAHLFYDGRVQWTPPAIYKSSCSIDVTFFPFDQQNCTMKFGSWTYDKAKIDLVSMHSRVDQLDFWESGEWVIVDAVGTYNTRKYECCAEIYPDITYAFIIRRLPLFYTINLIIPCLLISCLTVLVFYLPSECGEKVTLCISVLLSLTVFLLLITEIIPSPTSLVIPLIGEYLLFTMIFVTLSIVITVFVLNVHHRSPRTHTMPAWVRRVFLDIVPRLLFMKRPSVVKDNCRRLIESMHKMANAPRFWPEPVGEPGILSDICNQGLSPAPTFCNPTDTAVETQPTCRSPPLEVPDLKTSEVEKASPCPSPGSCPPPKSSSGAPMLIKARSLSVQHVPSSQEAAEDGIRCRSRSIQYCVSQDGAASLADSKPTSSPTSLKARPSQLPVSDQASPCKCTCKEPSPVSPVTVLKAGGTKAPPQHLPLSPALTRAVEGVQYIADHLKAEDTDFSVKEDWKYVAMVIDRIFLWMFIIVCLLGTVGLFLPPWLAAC
Sequence (P12390 whole entry): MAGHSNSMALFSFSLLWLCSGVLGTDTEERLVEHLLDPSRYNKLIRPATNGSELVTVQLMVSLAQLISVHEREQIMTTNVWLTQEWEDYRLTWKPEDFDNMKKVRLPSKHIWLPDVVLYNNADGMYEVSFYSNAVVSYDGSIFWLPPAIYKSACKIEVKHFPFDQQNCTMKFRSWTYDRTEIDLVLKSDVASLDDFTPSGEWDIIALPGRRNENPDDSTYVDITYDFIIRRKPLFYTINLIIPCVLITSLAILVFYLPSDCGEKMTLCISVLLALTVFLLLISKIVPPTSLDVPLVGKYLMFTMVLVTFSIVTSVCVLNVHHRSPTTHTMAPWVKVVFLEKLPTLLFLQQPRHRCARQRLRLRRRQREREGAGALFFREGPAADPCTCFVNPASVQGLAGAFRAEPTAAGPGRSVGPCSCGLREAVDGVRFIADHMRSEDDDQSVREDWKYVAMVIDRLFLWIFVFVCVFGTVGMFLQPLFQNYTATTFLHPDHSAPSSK

First: O=c1c(I)cc(I)c2n1CC1CNCC2C1 (centres undefined)
Second: O=c1ccc(I)c2n1CC1CNCC2C1 (centres undefined)
The Ki of the first is 2.3-fold higher: 0.525 nM for the first, 0.229 nM for the second.

`CN1C2CC=C(c3ccc(Cl)nc3)C1CC2` (centres undefined) and `CN1C2CC=C(c3cccnc3)C1CC2` (centres undefined) are within 1.5-fold of each other in Ki: 8.91 nM for the first, 9.55 nM for the second.

`CN1C2CCC1C(c1ccc(Cl)nc1)C2` (centres undefined) and `CN1C2CCC1C(c1ccc(F)nc1)C2` (centres undefined) are within 1.5-fold of each other in Ki: 0.0269 nM for the first, 0.0282 nM for the second.

First: C1=C(c2cnccn2)CC2CCC1N2 (centres undefined)
Second: C1=C(c2cccnc2)CC2CCC1N2 (centres undefined)
The Ki of the first is 120-fold higher: 30.9 nM for the first, 0.257 nM for the second.

Compared with `O=c1c(Br)cc(Br)c2n1CC1CNCC2C1` (centres undefined), `O=c1ccc(Br)c2n1CC1CNCC2C1` (centres undefined) is 35-fold lower in Ki: 10.7 nM for the first, 0.309 nM for the second. The second binds more tightly here.

First: CN1C2CCC1CN(c1ccc(Cl)nn1)CC2 (centres undefined)
Second: CN1C2CCC1CN(c1ccc(Cl)nc1)CC2 (centres undefined)
The Ki of the first is 1.6-fold lower: 0.55 nM for the first, 0.871 nM for the second.

Compared with `CN1C2CCC1CN(c1cncnc1)CC2` (centres undefined), `CN1C2CCC1CN(c1ccnnc1)CC2` (centres undefined) is 4-fold lower in Ki: 2.09 nM for the first, 0.525 nM for the second.

First: C1=C(c2cnccn2)C2CCC(CC1)N2 (centres undefined)
Second: C1=C(c2cnccn2)C2CCC(C1)N2 (centres undefined)
The Ki of the first is 33-fold lower: 12 nM for the first, 398 nM for the second. The first binds more tightly here.

First: S=c1cccc2n1CC1CNCC2C1 (centres undefined)
Second: O=c1cccc2n1C[C@@H]1CNC[C@H]2C1 [CYTISINICLINE]
The Ki of the first is 6.8-fold higher: 0.832 nM for the first, 0.123 nM for the second. The second binds more tightly here.

Going from `c1nncc2c1CC1CCC2N1` (centres undefined) to `c1nncc2c1CCC1CCC2N1` (centres undefined), the Ki falls from 75.9 nM to 34.7 nM (2.2-fold). The second binds more tightly here.

First: O=c1ccc(Cl)c2n1CC1CNCC2C1 (centres undefined)
Second: O=c1c(Cl)ccc2n1CC1CNCC2C1 (centres undefined)
The Ki of the first is 110-fold higher: 2.51 nM for the first, 0.0224 nM for the second. The second binds more tightly here.

Going from `C1=C(c2cncnc2)C2CCC(C1)N2` (centres undefined) to `C1=C(c2cncnc2)C2CCC(CC1)N2` (centres undefined), the Ki falls from 3.72 nM to 0.141 nM (26-fold). The second binds more tightly here.

Compared with `Brc1ccc(C2CC3CCC2N3)cn1` (centres undefined), `Ic1ccc(C2CC3CCC2N3)cn1` (centres undefined) is 1.8-fold lower in Ki: 0.0447 nM for the first, 0.0251 nM for the second.

First: CC(=O)C1=CCC2CCC1N2 (centres undefined)
Second: CN(C)C(=O)C1=CCC2CCC1N2 (centres undefined)
The Ki of the first is 660-fold lower: 93.3 nM for the first, 61700 nM for the second. The first binds more tightly here.

Compared with `C1=C(c2ccnnc2)C2CCC(CC1)N2` (centres undefined), `C1=C(c2ccnnc2)C2CCC(C1)N2` (centres undefined) is 2.4-fold lower in Ki: 19.1 nM for the first, 7.94 nM for the second.

Compared with `C1=C(c2ccnnc2)CC2CCC1N2` (centres undefined), `C1=C(c2cncnc2)CC2CCC1N2` (centres undefined) is 15-fold lower in Ki: 10 nM for the first, 0.661 nM for the second. The second binds more tightly here.

Going from `c1ncc2c(n1)CC1CCC2N1` (centres undefined) to `c1ncc2c(n1)C1CCC(C2)N1` (centres undefined), the Ki rises from 676 nM to greater than 10000 nM. The first binds more tightly here.

First: Clc1nccnc1C1=CC2CCC(C1)N2 (centres undefined)
Second: Clc1ncc(C2=CC3CCC(C2)N3)cn1 (centres undefined)
The Ki of the first is 300-fold higher: 209 nM for the first, 0.708 nM for the second. The second binds more tightly here.

Going from `C1=C(c2cncnc2)C2CCN1CC2` to `C1=C(c2cccnc2)C2CCN1CC2`, the Ki falls from 12.3 nM to 7.59 nM (1.6-fold). The second binds more tightly here.

`Clc1ccc(C2=CN3CCC2CC3)cn1` and `CN1C2C=C(c3ccc(Cl)nc3)CC1CC2` (centres undefined) are within 1.5-fold of each other in Ki: 2.29 nM for the first, 1.55 nM for the second.

Going from `O=c1c(Br)ccc2n1CC1CNCC2C1` (centres undefined) to `O=c1c(I)ccc2n1CC1CNCC2C1` (centres undefined), the Ki rises from 0.01 nM to 0.017 nM (1.7-fold).

Compared with `CN1C2CC=C(c3cncnc3)C1CC2` (centres undefined), `CN1C2C=C(c3cncnc3)CC1CC2` (stereo in doubt; 33) is 3.5-fold higher in Ki: 12.6 nM for the first, 43.7 nM for the second. The first binds more tightly here.

Going from `CC(=O)C1=CCC2CCC1N2C` (centres undefined) to `CN(C)C(=O)C1=CCC2CCC1N2C` (centres undefined), the Ki rises from 120 nM to 2000 nM (17-fold). The first binds more tightly here.

Going from `CN(C)C(=S)C1=CCC2CCC1N2` (centres undefined) to `CN(C)C(=S)C1=CCC2CCC1N2C` (centres undefined), the Ki rises from 2450 nM to greater than 20000 nM. The first binds more tightly here.

Compared with `COC(=O)C1=C(c2cccnc2)CC2CCC1N2C` (centres undefined), `COC(=O)C1=C(c2cncnc2)CC2CCC1N2C` (centres undefined) is 23-fold lower in Ki: 4900 nM for the first, 214 nM for the second. The second binds more tightly here.

First: Clc1ncc(C2=CCC3CCC2N3)cn1 (centres undefined)
Second: Clc1ncc(C2=CCCC3CCC2N3)cn1 (centres undefined)
The Ki of the first is 13-fold higher: 2 nM for the first, 0.151 nM for the second. The second binds more tightly here.

Compared with `C1=C(c2cccnc2)C2CCC(CC1)N2` (centres undefined), `C1=C(c2cccnc2)C2CCC(C1)N2` (centres undefined) is 31-fold higher in Ki: 0.0513 nM for the first, 1.58 nM for the second.

`Fc1ccc(C2CC3CCC2N3)cn1` (centres undefined) and `c1cncc(C2CC3CCC2N3)c1` (centres undefined) [DESCHLOROEPIBATIDINE] are within 1.5-fold of each other in Ki: 0.0282 nM for the first, 0.0257 nM for the second.

First: Clc1nccnc1C1=CCC2CCC1N2 (centres undefined)
Second: CN1C2CCC1CN(c1cnccn1)CC2 (centres undefined)
The Ki of the first is 16-fold higher: 4170 nM for the first, 263 nM for the second.

Compared with `CN1C2CCC1C(c1ccc(Br)nc1)C2` (centres undefined), `COC(=O)C1=C(c2ccc(Cl)nc2)CC2CCC1N2C` (centres undefined) is 46000-fold higher in Ki: 0.0363 nM for the first, 1660 nM for the second.

First: Cc1cc(C2=CCC3CCC2N3C)on1 (centres undefined)
Second: CN1C2C=C(c3cncnc3)CC1CC2 (stereo in doubt; 58)
The Ki of the first is 25-fold higher: 31.6 nM for the first, 1.26 nM for the second.

First: O=c1c(Cl)cc(Cl)c2n1CC1CNCC2C1 (centres undefined)
Second: CN1CC2CC(C1)c1cccc(=O)n1C2 (centres undefined)
The Ki of the first is 2.3-fold lower: 2.51 nM for the first, 5.75 nM for the second. The first binds more tightly here.
